Data: US20020111274A1, “1-alkyl-3-[1-(substituted phenyl) benzotriazol-6-yl] uracils” (BASF Aktiengesellschaft, priority 2000, published 2002)

Assays:
ZEAMX Corn, Field = assay: Preemergence herbicidal evaluation, ZEAMX; format: in vivo, Zea mays, L. (Sammel-Bezeichnung); parameters: scale not given here; details: preemergence, rate 0.125 kg/ha
Method in brief: (§1)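 Visual ratings were taken four to five weeks after application. Before that, cups sown with seed in potting soil received a spray of compound dissolved in aqueous acetone, equivalent to about 0.013 to 0.800 kg/ha, and stood on greenhouse benches under conventional care.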

GLXMAW Soybean, Williams [1] = assay: Postemergence herbicidal evaluation, GLXMAW; format: in vivo, Glycine max, (L.) Merr. cv Williams; parameters: scale not given here; details: postemergence spray, rated about two-three weeks after treatment
Method in brief: (§2)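 Postemergence spray, 40 psi nozzle, on ~2-week seedlings. Carrier: acetone/water 80/20, 1.0% methylated seed oil; dose ~0.006–0.400 kg/ha. Scored visually at 2–3 weeks.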

AMBEL Ragweed, Common [2] = assay: Preemergence herbicidal evaluation, AMBEL; format: in vivo, Ambrosia artemisifolia, L.; parameters: scale not given here; details: preemergence
Method in brief: as §1

ORYSAT Rice, Tebonnet [3] = assay: Preemergence herbicidal evaluation, ORYSAT; format: in vivo, Oryza sativa, (L.); parameters: scale not given here; details: preemergence
Method in brief: as §1

AMBEL Ragweed, Common [4] = assay: Postemergence herbicidal evaluation, AMBEL; format: in vivo, Ambrosia artemisifolia, L.; parameters: scale not given here; details: postemergence spray, rated about two-three weeks after treatment
Method in brief: as §2

SETVI Foxtail, Green = assay: Postemergence herbicidal evaluation, SETVI; format: in vivo, Setaria viridis, (L.) Beau; parameters: scale not given here; details: postemergence spray, rated about two-three weeks after treatment
Method in brief: as §2

GALAP Galium [5] = assay: Preemergence herbicidal evaluation, GALAP; format: in vivo, Galium aparine; parameters: scale not given here; details: preemergence
Method in brief: as §1

GLXMAW Soybean, Williams [6] = assay: Preemergence herbicidal evaluation, GLXMAW; format: in vivo, Glycine max, (L.) Merr. cv Williams; parameters: scale not given here; details: preemergence
Method in brief: as §1

CASOB Sicklepod = assay: Preemergence herbicidal evaluation, CASOB; format: in vivo, Cassia obtusifolia, L.; parameters: scale not given here; details: preemergence
Method in brief: as §1

GALAP Galium [7] = assay: Postemergence herbicidal evaluation, GALAP; format: in vivo, Galium aparine; parameters: scale not given here; details: postemergence spray, rated about two-three weeks after treatment
Method in brief: as §2

[8] = tested on: CHEAL Lambsquarters, Common; assay: Postemergence herbicidal evaluation, CHEAL; format: in vivo, Chenopodium album, L.; parameters: scale not given here; details: postemergence spray, rated about two-three weeks after treatment
Method in brief: as §2

[9] = tested on: TRZAWR Wheat, Winter, cv Riband; assay: Postemergence herbicidal evaluation, TRZAWR; format: in vivo, Triticum aestivum; parameters: scale not given here; details: postemergence spray, rated about two-three weeks after treatment
Method in brief: as §2

ORYSAT Rice, Tebonnet [10] = assay: Postemergence herbicidal evaluation, ORYSAT; format: in vivo, Oryza sativa, (L.); parameters: scale not given here; details: postemergence spray, rated about two-three weeks after treatment
Method in brief: as §2

Q: For `CCc1cccc(-n2nnc3cc(F)c(-n4c(=O)cc(C(F)(F)F)n(C)c4=O)cc32)c1` [Example 29, 3-[1-(3-ethylphenyl)-5-fluoro-1H-1,2,3-benzotriazol-6-yl]-1-methyl-6-(trifluoromethyl)-2,4(1H,3H)-pyrimidinedione], which ZEAMX herbicidal rating (ZEAMX Corn, Field) is on record?
A: The ZEAMX herbicidal rating was 5.0.

Q: And the “Postemergence herbicidal rating GLXMAW” value (GLXMAW Soybean, Williams [1]; 0.008 kg/ha)?
A: The value was 5.0.

Q: And the “Postemergence herbicidal rating GLXMAW” value (GLXMAW Soybean, Williams [1]; 0.016 kg/ha)?
A: Its value is 6.5.

Q: What about the “Postemergence herbicidal rating GLXMAW” value (GLXMAW Soybean, Williams [1]; 0.032 kg/ha) of the same molecule?
A: Its value is 8.0.

Q: What about the “Postemergence herbicidal rating GLXMAW” value (GLXMAW Soybean, Williams [1]; 0.062 kg/ha) of the same molecule?
A: Its value is 8.0.

Q: What about the AMBEL herbicidal rating (AMBEL Ragweed, Common [2]; rate 0.016 kg/ha) of the same molecule?
A: The AMBEL herbicidal rating was 0.0.

Q: What about the AMBEL herbicidal rating (AMBEL Ragweed, Common [2]; rate 0.032 kg/ha) of the same molecule?
A: Its AMBEL herbicidal rating is 0.0.

Q: What about the AMBEL herbicidal rating (AMBEL Ragweed, Common [2]; rate 0.062 kg/ha) of the same molecule?
A: Its AMBEL herbicidal rating is 3.0.

Q: And the AMBEL herbicidal rating (AMBEL Ragweed, Common [2]; rate 0.125 kg/ha)?
A: Its AMBEL herbicidal rating is 7.0.

Q: And the ORYSAT herbicidal rating (ORYSAT Rice, Tebonnet [3]; rate 0.016 kg/ha)?
A: Its ORYSAT herbicidal rating is 0.0.

Q: And the ORYSAT herbicidal rating (ORYSAT Rice, Tebonnet [3]; rate 0.032 kg/ha)?
A: The ORYSAT herbicidal rating was 1.0.

Q: What about the ORYSAT herbicidal rating (ORYSAT Rice, Tebonnet [3]; rate 0.062 kg/ha) of the same molecule?
A: The ORYSAT herbicidal rating was 3.0.

Q: And the ORYSAT herbicidal rating (ORYSAT Rice, Tebonnet [3]; rate 0.125 kg/ha)?
A: The ORYSAT herbicidal rating was 4.0.

Q: And the “Postemergence herbicidal rating AMBEL” value (AMBEL Ragweed, Common [4]; 0.008 kg/ha)?
A: Its value is 7.0.

Q: And the “Postemergence herbicidal rating AMBEL” value (AMBEL Ragweed, Common [4]; 0.016 kg/ha)?
A: Its value is 7.0.

Q: And the “Postemergence herbicidal rating AMBEL” value (AMBEL Ragweed, Common [4]; 0.032 kg/ha)?
A: The value was 6.0.

Q: And the “Postemergence herbicidal rating AMBEL” value (AMBEL Ragweed, Common [4]; 0.062 kg/ha)?
A: The value was 9.0.

Q: And the “Postemergence herbicidal rating SETVI” value (SETVI Foxtail, Green; 0.008 kg/ha)?
A: The value was 1.0.

Q: What about the “Postemergence herbicidal rating SETVI” value (SETVI Foxtail, Green; 0.016 kg/ha) of the same molecule?
A: Its value is 7.0.

Q: What about the “Postemergence herbicidal rating SETVI” value (SETVI Foxtail, Green; 0.032 kg/ha) of the same molecule?
A: The value was 9.0.

Q: What about the “Postemergence herbicidal rating SETVI” value (SETVI Foxtail, Green; 0.062 kg/ha) of the same molecule?
A: Its value is 9.0.

Q: What about the GALAP herbicidal rating (GALAP Galium [5]; rate 0.016 kg/ha) of the same molecule?
A: The GALAP herbicidal rating was 0.0.

Q: And the GALAP herbicidal rating (GALAP Galium [5]; rate 0.032 kg/ha)?
A: Its GALAP herbicidal rating is 0.0.

Q: What about the GALAP herbicidal rating (GALAP Galium [5]; rate 0.062 kg/ha) of the same molecule?
A: Its GALAP herbicidal rating is 1.0.

Q: And the GALAP herbicidal rating (GALAP Galium [5]; rate 0.125 kg/ha)?
A: Its GALAP herbicidal rating is 8.0.

Q: And the GLXMAW herbicidal rating (GLXMAW Soybean, Williams [6]; rate 0.016 kg/ha)?
A: The GLXMAW herbicidal rating was 0.0.

Q: And the GLXMAW herbicidal rating (GLXMAW Soybean, Williams [6]; rate 0.032 kg/ha)?
A: The GLXMAW herbicidal rating was 1.0.

Q: What about the GLXMAW herbicidal rating (GLXMAW Soybean, Williams [6]; rate 0.062 kg/ha) of the same molecule?
A: The GLXMAW herbicidal rating was 4.0.

Q: And the GLXMAW herbicidal rating (GLXMAW Soybean, Williams [6]; rate 0.125 kg/ha)?
A: The GLXMAW herbicidal rating was 5.0.

Q: What about the CASOB herbicidal rating (CASOB Sicklepod; rate 0.016 kg/ha) of the same molecule?
A: The CASOB herbicidal rating was 1.0.

Q: What about the CASOB herbicidal rating (CASOB Sicklepod; rate 0.125 kg/ha) of the same molecule?
A: Its CASOB herbicidal rating is 1.0.

Q: And the “Postemergence herbicidal rating GALAP” value (GALAP Galium [7]; 0.008 kg/ha)?
A: Its value is 0.0.

Q: What about the “Postemergence herbicidal rating GALAP” value (GALAP Galium [7]; 0.016 kg/ha) of the same molecule?
A: Its value is 1.0.

Q: And the “Postemergence herbicidal rating GALAP” value (GALAP Galium [7]; 0.032 kg/ha)?
A: Its value is 1.0.

Q: What about the “Postemergence herbicidal rating GALAP” value (GALAP Galium [7]; 0.062 kg/ha) of the same molecule?
A: Its value is 3.0.

Q: What about the “Postemergence herbicidal rating CHEAL” value ([8]; 0.008 kg/ha) of the same molecule?
A: The value was 9.0.

Q: What about the “Postemergence herbicidal rating CHEAL” value ([8]; 0.016 kg/ha) of the same molecule?
A: The value was 9.0.

Q: What about the “Postemergence herbicidal rating CHEAL” value ([8]; 0.032 kg/ha) of the same molecule?
A: Its value is 9.0.

Q: And the “Postemergence herbicidal rating CHEAL” value ([8]; 0.062 kg/ha)?
A: Its value is 9.0.

Q: What about the “Postemergence herbicidal rating TRZAWR” value ([9]; 0.008 kg/ha) of the same molecule?
A: Its value is 2.0.

Q: What about the “Postemergence herbicidal rating TRZAWR” value ([9]; 0.016 kg/ha) of the same molecule?
A: The value was 2.0.

Q: What about the “Postemergence herbicidal rating TRZAWR” value ([9]; 0.032 kg/ha) of the same molecule?
A: Its value is 2.5.

Q: And the “Postemergence herbicidal rating TRZAWR” value ([9]; 0.062 kg/ha)?
A: The value was 3.0.

Q: And the “Postemergence herbicidal rating ORYSAT” value (ORYSAT Rice, Tebonnet [10]; 0.008 kg/ha)?
A: Its value is 2.0.

Q: And the “Postemergence herbicidal rating ORYSAT” value (ORYSAT Rice, Tebonnet [10]; 0.016 kg/ha)?
A: Its value is 2.0.

Q: And the “Postemergence herbicidal rating ORYSAT” value (ORYSAT Rice, Tebonnet [10]; 0.032 kg/ha)?
A: Its value is 2.0.

Q: And the “Postemergence herbicidal rating ORYSAT” value (ORYSAT Rice, Tebonnet [10]; 0.062 kg/ha)?
A: The value was 3.0.

Q: And the melting point?
A: The melting point was 52 to 65 °C.
